Results on 48 molecules are retold here after US8450308B2 (Vitae Pharmaceuticals, Inc., priority 2008, dated 2013).

The target in this assay is T1, truncated human beta-secretase (residues 1-458, His6-tagged at the C-terminus) (Homo sapiens, UniProt P56817).
T1 construct: truncated human beta-secretase (residues 1-458, His6-tagged at the C-terminus); His6 (C); made in house; host or cells: insect cells D. melanogaster S2 (baculovirus expression system (so in the source))
The assay can be described thus: BACE fluorescence quench assay. It counts as biochemical.

Setting [1] is: in vitro enzyme activity, BACE fluorescence assay, pH 4.5, read-out: IC50.

Molecules are shown by their SMILES. pIC50: −log10 of the molar value. Read-outs that look alike come from different tables or passages of the source.

T1 sequence (P56817 22-458): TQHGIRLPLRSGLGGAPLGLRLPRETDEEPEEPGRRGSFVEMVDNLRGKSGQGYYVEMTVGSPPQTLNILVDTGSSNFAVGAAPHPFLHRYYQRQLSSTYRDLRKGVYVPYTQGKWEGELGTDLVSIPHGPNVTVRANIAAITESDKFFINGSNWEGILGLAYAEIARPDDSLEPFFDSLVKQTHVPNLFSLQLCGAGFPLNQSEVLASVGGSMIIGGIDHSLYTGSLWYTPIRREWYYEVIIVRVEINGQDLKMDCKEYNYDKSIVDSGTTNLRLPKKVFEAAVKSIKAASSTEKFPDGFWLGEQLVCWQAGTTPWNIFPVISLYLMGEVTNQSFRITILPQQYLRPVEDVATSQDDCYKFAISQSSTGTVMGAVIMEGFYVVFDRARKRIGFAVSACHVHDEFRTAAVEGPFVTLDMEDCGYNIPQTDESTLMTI

In the case of `CCOc1cccc(-c2ccc3c(c2)C2(CC4(CCCOC4)O3)N=C(N)N(C)O2)c1` (stereo not drawn) [Compound 124], under setting [1], the pIC50 (commonly the IC50 on a negative log10 scale, so that one unit is a factor of ten) was 5.00 to 5.30.

As to `CN1OC2(CC(CO)(CO)Oc3ccc(-c4cccc(C#N)c4)cc32)N=C1N` (stereo not drawn) [Compound 100, 3-(2,2-bis(hydroxymethyl)-3′-imino-2′-methylspiro[chroman-4,5′-[1,2,4]oxadiazolidine]-6-yl)benzonitrile], the pIC50 under setting [1] was 5.30 to 6.00.

For `CN1C(=O)C2(CC(c3cccc(F)c3F)Oc3ccc(-c4cccc(C#N)c4)cc32)N=C1N` (stereo not drawn) [Compound 14, 3-(2′-amino-2-(2,3-difluorophenyl)-1′-methyl-5′-oxo-1′,5′-dihydrospiro[chroman-4,4′-imidazole]-6-yl)benzonitrile], the pIC50 under setting [1] is 6.30 to 7.00.

Take `CN1OC2(CC(C3CCCOC3)Oc3ccc(-c4cccc(F)c4)cc32)N=C1N` (stereo not drawn) [Compound 93, 6-(3-fluorophenyl)-2′-methyl-2-(tetrahydro-2H-pyran-3-yl)-2′H-spiro[chroman-4,5′-[1,2,4]oxadiazol]-3′-amine]: under setting [1], the pIC50 is 6.00 to 6.30.

With `CN1C(=O)C2(CC(c3cccc(F)c3)Oc3ccc(-c4cccc(C#N)c4)cc32)N=C1N` (stereo not drawn) [Compound 7], under setting [1], the pIC50 was 6.30 to 7.00.

As to `CN1C(=O)[C@@]2(C[C@@]3(CCCOC3)Oc3ccc(-c4ccc(F)c(Cl)c4)cc32)N=C1N` [Compound 310], the pIC50 under setting [1] is 6.30 to 7.00.

In the case of `CN1OC2(CC3(CCCOC3)Oc3ccc(C#Cc4ccccc4)cc32)N=C1N` (stereo not drawn) [Compound 454, 2″-methyl-6-(phenylethynyl)-2″H-spiro[spiro[chroman-2,1′-(3-oxacyclohexane)]-4,5′-[1,2,4]oxadiazol]-3″-amine], the pIC50 under setting [1] was 4.30 to 5.00.

With `CN1OC2(CC(C3CCOC(C)(C)C3)Oc3ccc(-c4cccc(-n5ccnc5)n4)cc32)N=C1N` (stereo not drawn) [Compound 400], the pIC50 under setting [1] was 5.30 to 6.00.

Take `COc1cc(F)cc(-c2ccc3c(c2)[C@]2(C[C@@]4(CCCOC4)O3)N=C(N)N(C)C2=O)c1` [Compound 328]: the pIC50 under setting [1] was 6.30 to 7.00.

For `C=Cc1cccc(-c2ccc3c(c2)C2(CC(c4ccccc4)O3)N=C(N)N(C)C2=O)c1` (stereo not drawn) [Compound 22, 2′-amino-1′-methyl-2-phenyl-6-(3-vinylphenyl)spiro[chroman-4,4′-imidazol]-5′(1′H)-one], the pIC50 is 5.30 to 6.00.

`CN1C(=O)C2(CC(c3ccccc3)Oc3ccc(-c4ccc(F)c(C(=O)NCCO)c4)cc32)N=C1N` (stereo not drawn) [Compound 40, 5-(2′-amino-1′-methyl-5′-oxo-2-phenyl-1′,5′-dihydrospiro[chroman-4,4′-imidazole]-6-yl)-2-fluoro-N-(2-hydroxyethyl)benzamide] gave a pIC50 of 5.30 to 6.00.

As for `CN1OC2(CC(C3CCOC3)Oc3ccc(-c4cccc(C#N)c4)cc32)N=C1N` (stereo not drawn) [Compound 94], under setting [1], the pIC50 is 6.00 to 6.30.

In the case of `CCC1CCC2(C1)CC1(N=C(N)N(C)O1)c1cc(-c3cccc(C#N)c3)ccc1O2` (stereo not drawn) [Compound 120], the pIC50 under setting [1] is 5.30 to 6.00.

Consider `CN1C(=O)[C@@]2(C[C@@]3(CCCOC3)Oc3ccc(-c4cc(C#N)cc(C#N)c4)cc32)N=C1N` [Compound 309], for which the pIC50 under setting [1] is 6.30 to 7.00.

With `CN1OC2(C[C@H]([C@@H]3CCOC(C)(C)C3)Oc3ccc(-c4cc(F)ccc4F)cc32)N=C1N` (stereo partly drawn) [Compound 384], the pIC50 under setting [1] is 5.30 to 6.00.

For `CN1OC2(CC(C3CCCOC3)Oc3ccc(-c4ccc(F)c(C#N)c4F)cc32)N=C1N` (stereo not drawn) [Compound 334], the pIC50 under setting [1] was 6.30 to 7.00.

Turning to `CN1OC2(CC(c3ccccn3)Oc3ccc(-c4cccc(C#N)c4)cc32)N=C1N` (stereo not drawn) [Compound 106, 3-(3′-amino-2′-methyl-2-(pyridin-2-yl)-2′H-spiro[chroman-4,5′-[1,2,4]oxadiazole]-6-yl)benzonitrile], the pIC50 under setting [1] is 5.00 to 5.30.

Turning to `COc1cccc(-c2ccc3c(c2)C2(CC(c4ccccc4)O3)N=C(N)N(C)C2=O)c1` (stereo not drawn) [Compound 13, 2′-amino-6-(3-methoxyphenyl)-1′-methyl-2-phenylspiro[chroman-4,4′-imidazol]-5′(1′H)-one], the pIC50 was 6.30 to 7.00.

With `CC(C)c1cccc(-c2ccc3c(c2)C2(CC(C4CCCOC4)O3)N=C(N)N(C)O2)c1` (stereo not drawn) [Compound 101, 6-(3-isopropylphenyl)-2′-methyl-2-(tetrahydro-2H-pyran-3-yl)-2′H-spiro[chroman-4,5′-[1,2,4]oxadiazol]-3′-amine], the pIC50 under setting [1] is 5.30 to 6.00.

The molecule `CN1C(=O)C2(CC(c3ccccc3)Oc3ccc(-c4cccc(C(F)(F)F)c4)cc32)N=C1N` (stereo not drawn) [Compound 30, 2′-amino-1′-methyl-2-phenyl-6-(3-(trifluoromethyl)phenyl)spiro[chroman-4,4′-imidazol]-5′(1′H)-one] showed a pIC50 of 5.30 to 6.00.

Regarding `CC1CC[C@]2(CO1)C[C@]1(N=C(N)N(C)O1)c1cc(-c3cc(Cl)cc(Cl)c3)ccc1O2` (stereo partly drawn) [Compound 371], the pIC50 under setting [1] is 6.00 to 6.30.

In the case of `CC1CCC2(C1)CC1(N=C(N)N(C)C1=O)c1cc(-c3cccc(C#N)c3)ccc1O2` (stereo not drawn) [Compound 74], the pIC50 under setting [1] was 6.30 to 7.00.

`CN1C(=O)C2(CC(c3ccccc3)Oc3ccc(-c4ccccc4C#N)cc32)N=C1N` (stereo not drawn) [Compound 35, 2-(2′-amino-1′-methyl-5′-oxo-2-phenyl-1′,5′-dihydrospiro[chroman-4,4′-imidazole]-6-yl)benzonitrile] gave a pIC50 of 5.30 to 6.00.

In the case of `CN1OC2(C[C@H]([C@H]3CCOC(C)(C)C3)Oc3ccc(-c4cccc(C#N)c4F)cc32)N=C1N` (stereo partly drawn) [Compound 312], the pIC50 under setting [1] is 6.30 to 7.00.

Consider `CN1OC2(CC3(CCC(OCc4ccccc4)CC3)Oc3ccc(-c4cccc(C#N)c4)cc32)N=C1N` (stereo not drawn) [Compound 375], for which the pIC50 under setting [1] is 5.30 to 6.00.

Take `CC(C)=CC(CCO)[C@H]1C[C@@]2(N=C(N)N(C)O2)c2cc(-c3cc(F)cc(F)c3F)ccc2O1` (stereo partly drawn) [Compound 420]: the pIC50 under setting [1] was 5.30 to 6.00.

Turning to `CN1C(=O)C2(CC(c3ccccc3)Oc3ccc(-c4cccc(C(=O)NCCC#N)c4)cc32)N=C1N` (stereo not drawn) [Compound 47, 3-(2′-amino-1′-methyl-5′-oxo-2-phenyl-1′,5′-dihydrospiro[chroman-4,4′-imidazole]-6-yl)-N-(2-cyanoethyl)benzamide], the pIC50 was 5.00 to 5.30.

Regarding `CN1OC2(CC3(CCCOC3)Oc3ccc(C4CCCCC4)cc32)N=C1N` (stereo not drawn) [Compound 122], the pIC50 under setting [1] is 5.30 to 6.00.

Regarding `CC(=O)N1CCC2(CC1)CC1(N=C(N)N(C)O1)c1cc(-c3cccc(C#N)c3)ccc1O2` (stereo not drawn) [Compound 409, 3-(spiro[spiro(chroman-2,4′-(1-acetylpiperidine))-4,5′-(3-amino-2-methyl-2H-[1,2,4]oxadiazole)]-6-yl)benzonitrile], under setting [1], the pIC50 was 5.30 to 6.00.

Turning to `CN1C(=O)C2(CC(c3ccccc3)Oc3ccc(-c4ccc(C(F)(F)F)cc4)cc32)N=C1N` (stereo not drawn) [Compound 56, 2′-amino-1′-methyl-2-phenyl-6-(4-(trifluoromethyl)phenyl)spiro[chroman-4,4′-imidazol]-5′(1′H)-one], the pIC50 is 4.30 to 5.00.

Take `CCCOc1cccc(-c2ccc3c(c2)C2(CC4(CCCOC4)O3)N=C(N)N(C)O2)c1` (stereo not drawn) [Compound 126]: the pIC50 under setting [1] is 5.00 to 5.30.

As for `COC1CCC2(CC1)CC1(N=C(N)N(C)O1)c1cc(-c3cccc(C#N)c3)ccc1O2` (stereo not drawn) [Compound 388], the pIC50 under setting [1] is 5.30 to 6.00.

For `CN1OC2(CC(C3CCCOC3)Oc3ccc(-c4cccc(C#N)c4)cc32)N=C1N` (stereo not drawn) [Compound 85, 3-(3′-amino-2′-methyl-2-(tetrahydro-2H-pyran-3-yl)-2′H-spiro[chroman-4,5′-[1,2,4]oxadiazole]-6-yl)benzonitrile], the negative logarithm of the IC50 (pIC50) under setting [1] was 7.00 to 9.00.

As for `CN1C(=O)C2(CC(c3ccccc3)Oc3ccc(-c4cccc(C#N)c4)cc32)N=C1N` (stereo not drawn) [Compound 2, 3-(2′-amino-1′-methyl-5′-oxo-2-phenyl-1′,5′-dihydrospiro[chroman-4,4′-imidazole]-6-yl)benzonitrile], under setting [1], the pIC50 is 6.30 to 7.00.

For the molecule `CN1OC2(CC3(CCC(Oc4ccccc4)CC3)Oc3ccc(-c4cccc(C#N)c4)cc32)N=C1N` (stereo not drawn) [Compound 383], under setting [1], the pIC50 is 5.30 to 6.00.

On to `Cc1ccc(C#N)cc1-c1ccc2c(c1)[C@]1(C[C@@H](C3CCOC(C)(C)C3)O2)N=C(N)N(C)C1=O` (stereo partly drawn) [Compound 437], for which the pIC50 under setting [1] is 5.00 to 5.30.

With `CN1C(=O)[C@@]2(C[C@@]3(CCCOC3)Oc3ccc(-c4cc(C#N)cc(C(F)(F)F)c4)cc32)N=C1N` [Compound 304], the pIC50 under setting [1] was 6.30 to 7.00.

As to `CN1C(=O)C2(CC(C3CCCCC3)Oc3ccc(-c4cccc(C#N)c4)cc32)N=C1N` (stereo not drawn) [Compound 3, 3-(2′-amino-2-cyclohexy-1′-methyl-5′-oxo-1′,5′-dihydrospiro[chroman-4,4′-imidazole]-6-yl)benzonitrile], the pIC50 under setting [1] is 6.30 to 7.00.

With `CN1OC2(CC(C3CCCC3)Oc3ccc(-c4cccc(C#N)c4)cc32)N=C1N` (stereo not drawn) [Compound 99], the negative-log IC50 (pIC50) under setting [1] was 5.30 to 6.00.

For the molecule `CN1OC2(CC3(CCc4ccccc4CC3)Oc3ccc(-c4cccc(C#N)c4)cc32)N=C1N` (stereo not drawn) [Compound 451], the pIC50 under setting [1] was 4.30 to 5.00.

For `CN1OC2(CC(c3ccncc3)Oc3ccc(-c4cccc(C#N)c4)cc32)N=C1N` (stereo not drawn) [Compound 105, 3-(3′-amino-2′-methyl-2-(pyridin-4-yl)-2′H-spiro[chroman-4,5′-[1,2,4]oxadiazole]-6-yl)benzonitrile], the negative logarithm of the IC50 (pIC50) under setting [1] was 5.00 to 5.30.

In the case of `CN1OC2(CC(c3ccccc3)Oc3ccc(-c4cccc(C#N)c4)cc32)N=C1N` (stereo not drawn) [Compound 96, 3-(3′-amino-2′-methyl-2-phenyl-2′H-spiro[chroman-4,5′-[1,2,4]oxadiazole]-6-yl)benzonitrile], the pIC50 under setting [1] was 5.30 to 6.00.

For the molecule `CN1OC2(C[C@H](C3CCOC(C)(C)C3)Oc3ccc(-c4ccc5cn[nH]c5c4)cc32)N=C1N` (stereo partly drawn) [Compound 369], the pIC50 under setting [1] was 6.00 to 6.30.

On to `CN1OC2(CC(C3CCOC(C)(C)C3)Oc3ccc(-c4cc(F)cc(F)c4F)cc32)N=C1N` (stereo not drawn) [Compound 344], for which, under setting [1], the pIC50 is 6.30 to 7.00.

Consider `CN1OC2(CC3(CCS(=O)(=O)CC3)Oc3ccc(-c4cccc(C#N)c4)cc32)N=C1N` (stereo not drawn) [Compound 438], for which the pIC50 under setting [1] is 5.00 to 5.30.

With `CN1C(=O)C2(CC3(CCCOC3)Oc3ccc(-c4cc(F)ccc4F)cc32)N=C1N` (stereo not drawn) [Compound 332], under setting [1], the pIC50 is 6.30 to 7.00.

For `CN1C(=O)[C@@]2(C[C@]3(CCCOC3)Oc3ccc(-c4cc(C#N)ccc4C(F)(F)F)cc32)N=C1N` [Compound 380], the pIC50 under setting [1] was 5.30 to 6.00.

Take `CC1CCCC2(C1)CC1(N=C(N)N(C)C1=O)c1cc(-c3cccc(C#N)c3)ccc1O2` (stereo not drawn) [Compound 82]: the pIC50 under setting [1] was 5.30 to 6.00.
